A short description of series [1]: Solubility of procysteine. In kind it is physicochemical.
In another series the test system is corneodesmosine. The series is described as follows: Evaluating desquamation by measuring the degradation of corneodesmosines (immunoblot of stratum corneum acetonic powders). The following applies: aqueous solution containing 2% of active agent, pH 8.0, incubation 17 h at 30° C., versus control without active agent. In kind it is biochemical, human. From the text: Corneodesmosine is one of the major markers of desquamation of the corneodesmosome. It is studied by immunoblotting after separation by electrophoresis and transfer onto a membrane.
The mouse monoclonal antibody G36-19 is specific for corneodesmosine; it fauns part of a series of antibodies directed against epidermal differentiation antigens, produced after immunizing a mouse with a homogenate of human plantar horny layer, and then characterized (Serre G. et al., J. Invest. Dermatol. 1991; 97(6):1061-72).
Varnish-stripping operations are carried out on the lower legs of volunteers (modification of the procedure by Lundström A. and Egelrud T., Acta Derm. Venereol. (Stockholm) 71, 471-474, 1991). […]
The samples and also a Rainbow (Amersham Pharmacia Biotech) low molecular weight standard at 1/3 are separated by electrophoresis on gel containing 12% acrylamide for 30 minutes at 100 V and then for 1 hour at 200 V. After the electrophoresis, the proteins are transferred onto an Immobilon-P membrane (Millipore) for 3 hours at 60 V. The membrane is then incubated for twice 15 minutes in TBS-TL buffer: 25 mM Tris, 0.15M NaCl pH 7.2, 0.05% Tween 20, 0.5% skimmed milk powder, in order to block the non-specific sites. […] The chemiluminescence of the corneodesmosine bands is measured with the FluorS Multimager (Biorad). The 33 and 46 kD bands are quantified with the Quantity-one software (Biorad). […]

Turning to `O=C1N[C@H](C(=O)O)CS1` [Procysteine, L-2-oxothiazolidine-4-carboxylic acid], the solubility in ethanol result in series [1] (ethanol) is given as “greater than 10%”. For the same compound, the solubility in water result in series [1] (water) is “greater than 4%”. The “Percentage increase in corneodesmosine degradation” value with corneodesmosine is reported as 77%.

The values are drawn from patent US20100179200A1, “2-OXOTHIAZOLIDINE 4-CARBOXYLIC ACID COMPOUNDS FOR PROMOTING DESQUAMATION OF THE SKIN” (SOCIETE L'OREAL, S.A., priority 2000, published 2010).
